Experimental data: patent US6056965A, “2-mercapto-imidazole derivatives substituted in position 4 (or 5) as antioxidizing agents, method of preparation and applications in the pharmaceutical, cosmetic or food industries” (Oxis Isle of Man, Limited, priority 1993, dated 2000)

Key:
[1] = system: erythrocytic glutathione peroxidase; test: Prevention of the inactivation of glutathione peroxidase by hypochlorous acid; type: biochemical, bovine; conditions: 25 μM test molecule + 10 μM hypochlorous acid, 2 minutes at 37° C.; 100% = no hypochlorous acid and no test molecule
Procedure: In a 50 mM potassium phosphate buffer of pH 7.0 containing 0.1 mM DTPA, a quantity of erythrocytic glutathione peroxidase of bovine origin is incubated for 2 minutes at 37° C., at a final concentration of 1.5 U/ml, in the presence of 10 μM hypochlorous acid and in the presence or absence of a molecule described in the present invention (at 25 μM).
After incubation for 2 minutes, 100 μl of this reaction medium are then added to 1.5 ml of 50 mM Tris buffer of pH 7.6 (at 37° C.) containing 0.1 mM DTPA, 0.165 mM β-NADPH, 2.2 mM reduced glutathione and 1.1 U/ml of glutathione disulfide reductase.
Then, after the addition of 50 μl of 6.6 mM t-butyl hydroperoxide, the glutathione peroxidase activity is determined at 37° C. by measuring the decrease in absorbance at 340 nm for 2 minutes.
They are expressed as a percentage of the glutathione peroxidase activity determined under the same experimental conditions in the absence of hypochlorous acid and the test molecule.

[2] = system: glucose-6-phosphate dehydrogenase; test: Prevention of the inactivation of glucose-6-phosphate dehydrogenase by the system Cu(II)/ascorbate/O2; type: biochemical, Leuconostoc mesenteroides; conditions: 25 μM test molecule + 4.5 μM Cu(2+) + 360 μM ascorbate, 5 minutes at 37° C.; 100% = no system and no test molecule
Procedure: In a 50 mM potassium phosphate buffer of pH 7.0, a quantity of glucose-6-phosphate dehydrogenase (purified from Leuconostoc mesenteroides) is incubated for 5 minutes at 37° C., at a final concentration of 1.2 U/ml, in the presence of 4.5 μM copper sulfate and 360 μM ascorbate and in the presence or absence of a molecule described in the present invention (at 25 μM). After incubation for 5 minutes, 20 μl of this reaction medium are then added to 980 μl of 50 mM Tris buffer of pH 7.5 (at 37° C.) containing 0.380 mM β-NADP^+, 3.3 mM glucose-6-phosphate and 6.3 mM magnesium chloride. The glucose-6-phosphate dehydrogenase activity is then determined at 37° C. by measuring, the increase in absorbance at 340 nm for 7 minutes. They are expressed as a percentage of the glucose-6-phosphate dehydrogenase activity determined under the same experimental conditions in the absence of the system Cu(II)/ascorbate/O2 and the test molecule.

double-stranded DNA = test: Prevention of the degradation of DNA by the system Fe(II)-citrate/H2O2/ascorbate; type: biochemical, phage lambda; conditions: 25 μM test molecule (table) + 20 μM Fe(2+)-citrate, 200 μM ascorbate, 200 μM H2O2, 1 hour at 37° C.
Procedure: After this incubation for one hour, 220 U/ml of catalase are then added to the reaction medium and the integrity of the DNA is measured by spectrofluorimetry after the addition of 10 μl of a 5 mM solution of ethidium bromide to the reaction medium (excitation wavelength: 510 nm; emission wavelength: 590 nm).
The effect of the test molecule is measured by determining the percentage of intact DNA, the value of 100% being determined under the same experimental conditions in the absence of the system Fe(II)-citrate/H2 O2 /ascorbate and the test molecule.

[3] = system: isolated and perfused rat heart; test: Inhibition of cardiac necrosis induced by ischemia-reperfusion, perfused isolated heart (Example 16); conditions: 2 μM in perfusion medium 12 minutes prior to ischemia and during reperfusion
Procedure: Male Sprague-Dawley rats weighing between 250 and 350 grams are injected intraperitoneally with a solution of sodium heparinate (40 units/100 g). The rats are anesthetized with ether 30 minutes later. The heart is then quickly removed and perfused by Langendorff's method (see 0. LANGENDORFF: Pflugers Arch. Physiol. Mensch. Tiere; (1895); 61; page 291) with electrical stimulation at a frequency of 300/min. The perfusion solution, equilibrated with 95% of oxygen and 5% of carbon dioxide, consists of a modified Krebs-Henseleit buffer (pH 7.4) of the following composition: NaCl118 mM, KCl 4.7 mM, MgSO4 1.2 mM, CaCl2 1 mM, KH2 PO4 1.2 mM, NaHCO3 25 mM and glucose 11 mM. The whole set-up is thermostatically controlled at 37° C.
The functional state of the heart is monitored by measurement of the following hemodynamic parameters: heart rate, systolic and telediastolic ventricular pressures (the difference between these expressing the developed pressure) and minimal and maximal slopes of the pressure variations as a function of time. […]
In addition, the alteration of the myocardial tissue is evaluated by determining the concentration, in the perfusate, of two cytosolic enzymes released into the perfusion medium, namely creatine phosphokinase (CPK) and lactate dehydrogenase (LDH). […]

isolated rat heart [4] = test: Recovery of the developed pressure of a heart subjected to ischemia-reperfusion (Example 18); conditions: 10 μM BXT 52051 or 2 μM BXT 52052; 12 minutes prior to ischemia and during reperfusion; FIG. 4
Procedure: In the same experimental model as that described in Example 17, the study of BXT 52051 and BXT 52052 is carried out by perfusing the heart with the perfusion medium containing 10 μM BXT 52051 or 2 μM BXT 52052 for 12 minutes prior to the period of ischemia, as well as during the reperfusion. The degradation of the cardiac function is evaluated from the measurement of hemodynamic parameters (systolic and telediastolic ventricular pressures) by determining over time the percentage recovery of the developed pressure (difference between systolic and telediastolic pressure) during the reperfusion, compared to that recorded just before the period of ischemia (stabilized developed pressure).

[5] = system: isolated and perfused rat heart; test: Inhibition of cardiac necrosis induced by ischemia-reperfusion, modified perfusion solution (Example 17); conditions: 20 μM BXT 52053, 600 μM albumin (BSA) or 100 μM L-ergothioneine; 12 minutes before ischemia and first 30 minutes of reperfusion; FIG. 3
Procedure: In the same experimental model as that described in Example 16, the composition of the perfusion solution was modified such that it contains 2.5 mM CaCl2 and 2.4 mM MgCl2) (all else being moreover equal). The effect of BXT 52053 is then compared to that of albumin and L-ergothioneine.
This study is carried out by perfusing the heart with the perfusion solution containing 20 μM BXT 52053, or 600 μM albumin (BSA), or 100 μM L-ergothioneine, during the 12 minutes preceding the period of ischemia, then during the first 30 minutes of post-ischemic reperfusion.
The degradation of the myocardial tissue due to the ischemia and/or reperfusion is evaluated by determining the total quantity of creatine phosphokinase (CPK) released into the perfusate during the period of reperfusion. The results are expressed in milliunits of enzyme activity per milligram of heart and per minute.

isolated rat heart [6] = conditions: 100 μmolar; after 15 min of ischemia; cited from earlier work
oxyhemoglobin = conditions: micromolar concentrations; sodium nitrite; in vitro; cited from earlier work
[7] = system: ferryl forms of the hemoproteins; conditions: physiological pH; produced in the presence of H2O2; cited from earlier work
[8] = physiological conditions (concentrations and pH); cited from earlier work
[9] = physiological conditions (concentrations and pH); cited from earlier work; remark: listed apart in the source
[10] = pulsed radiolysis or Fenton reaction; cited from earlier work
[11] = quenching excited states of photosensitizers such as rose bengal; cited from earlier work
[12] = in the presence of metal salts (Fe^++); cited from earlier work

| Compound | % glutathione peroxidase activity [1] [%] | % glucose-6-phosphate dehydrogenase activity [2] [%] | % intact DNA (double-stranded DNA) [%] | other results |
| --- | --- | --- | --- | --- |
| O=C(O)CCc1c[nH]c(=S)[nH]1 [BXT 52020, 3-(2'-mercaptoimidazol-4'-yl)propanoic acid] | 94.8 | 92.3 | 76.2 | – |
| CCOC(=O)CCc1c[nH]c(=S)[nH]1 [BXT 52021, ethyl 3-(2'-mercaptoimidazol-4'-yl)propanoate] | 94.7 | 93.7 | 78.0 | systolic pressure of heart subjected to ischemia-reperfusion [3]: maintained |
| C[N+](C)(C)CC(CC(=O)[O-])OC(=O)CCc1c[nH]c(S)n1 (stereo not drawn) [BXT 52052, carnitine 3-(2'-mercaptoimidazol-4'-yl)propanoate] | – | – | – | recovery of the ventricular developed pressure during reperfusion (isolated rat heart [4]): recovered much more rapidly and reaches a higher value |
| C[N+](C)(C)[C@@H](Cc1c[nH]c(=S)[nH]1)C(=O)[O-] [L-ergothioneine, L-(+)-Ergothioneine] | – | – | – | total quantity of CPK released into the perfusate during 30 minutes of reperfusion [5]: no significant effect; extent of cell necrosis (lactate dehydrogenase activity of the effluent) (isolated rat heart [6]): limits the extent of cell necrosis; inhibition of methemoglobin formation (oxyhemoglobin): effectively inhibit the formation of methemoglobin; reduction of ferryl forms of hemoproteins [7]: reduces the ferryl forms of the hemoproteins; reaction with hydrogen peroxide [8]: reacts neither; reaction with superoxide anion [9]: reacts neither; reaction with OH radicals [10]: kinetics close to the maximum rate of diffusion; photoproduction of singlet oxygen [11]: inhibits the photoproduction of singlet oxygen; stimulation of peroxidation of polyunsaturated fatty acids [12]: does not stimulate the peroxidation of polyunsaturated fatty acids |
| albumin: albumin (BSA), comparison agent in the perfusion solution | – | – | – | total quantity of CPK released into the perfusate during 30 minutes of reperfusion [5]: no significant effect |

The next lines start with results.

| % glutathione peroxidase activity [1] [%] | % glucose-6-phosphate dehydrogenase activity [2] [%] | Compound | % intact DNA (double-stranded DNA) [%] | other results |
| --- | --- | --- | --- | --- |
| 94.4 | 94.4 | NCCc1c[nH]c(=S)[nH]1 [BXT 52022, 2-(2'-mercaptoimidazol-4'-yl)ethylamine] | 80.2 | – |
| 93.2 | 92.3 | NC(=O)CCc1c[nH]c(=S)[nH]1 [BXT 52029, 3-(2'-mercaptoimidazol-4'-yl)propanamide] | 78.0 | – |
| 99.1 | 104.6 | CN(C)[C@@H](Cc1c[nH]c(=S)[nH]1)C(=O)O [BXT 52040, 2'-mercapto-Nα,Nα-dimethyl-L-(+)-histidine] | 75.3 | – |
